Test results as given in publication PMC5601180, “Uptake and metabolism of sulphated steroids by the blood–brain barrier in the adult male rat” (Journal of Neurochemistry, 2017).
Where two headings read alike, the source gives them in different places.

Columns and labels:
[1] = after intracerebral injection, rats; ref Asaba et al. (2000); cited from earlier work
[2] = Rat brain perfusion in situ: uptake of 3H-steroid sulphates and markers (Vd, Kin, PS); details: for K in, unidirectional transfer coefficient: 0.5 min perfusion, corrected for vascular space (sucrose Vd), n ≥ 3
Method: Each animal also received intraperitoneal heparin, 10 000 U/kg. Body temperature was maintained at 37°C with a heating pad.
For analysis of free and sulphated steroids and for steryl‐sulfate sulfohydrolase (EC 3.1.6.2; trivial name steroid sulphatase) assays, both hemispheres were perfused, via right and left common carotid arteries, and 0.8 mM MgCl2 replaced 0.8 mM MgSO4 in the solution. The perfusate was delivered at a constant rate of 6 mL/min for hemi‐perfusions and 12 mL/min for bilateral perfusions, maintaining a net perfusion pressure of 40–70 mm Hg.
The remaining tissue of the right hemisphere was homogenised and samples (~50 mg) taken in triplicate (“remainder samples”). Triplicate samples of the perfusate were also taken. Samples were weighed into vials and dissolved (48 h at 20°C) in 0.5 mL Solvable before addition of 4.5 mL Optiphase 2 scintillation fluid for counting of radioactivity.
Brain uptake was calculated as a volume of distribution V d, where V d (μL/g) = (dpm/g tissue)/(dpm/μL perfusate). The unidirectional transfer coefficients, (K in, μL/g/min), for DHEAS and for PregS were calculated from the V d at 0.5 min, corrected with the V d for the vascular space marker sucrose.

[3] = Bilateral brain perfusion, capillary depletion and separation of free and sulphated 3H-steroids; assay type: in vivo, rat
Method: Brains were bilaterally perfused for 0.5 min with ^3H‐labelled DHEAS 1.25 or 6.0 μCi (0.046 or 0.221 MBq)/mL (13.5 or 64.9 nM) or PregS 1.0 μCi (0.037 MBq)/mL (47.6 nM). The hindbrain was removed and each hemisphere homogenised in 2 vols (w/v) buffer containing (in mM) NaCl 141, KCl 4, NaH2PO4 1, CaCl2 2.8, MgCl2 1, HEPES 10, D‐glucose 10, pH 7.4. A sample of the homogenate of the whole right hemisphere was removed for scintillation counting, and the remainder retained as the whole brain homogenate.
The left hemisphere homogenate was separated into capillary‐enriched and capillary‐depleted fractions by the method of Triguero et al. (1990). For this, an equal volume of 26% dextran (w/w) solution was added to the homogenate and a sample taken for liquid scintillation counting before centrifugation at 5300 g for 15 min at 4°C. The upper layer was taken as the capillary‐depleted fraction and the pellet as the capillary‐enriched fraction.
Before extraction, fractions were sonicated in 5 vols ice‐cold, 5 mM potassium phosphate buffer, pH 7. Small portions (150 μL) were removed for measurement of protein content (Bradford 1976) and total radioactivity. For the latter, homogenate was solubilised (15 min, 20°C) in 10 vols Soluene then bleached (2 h, 50°C) with 0.3 vol hydrogen peroxide before counting in Ecoscint H containing Triton X‐100 (6% v/v), glacial acetic acid (0.6% v/v) and butylated hydroxytoluene (2% w/v). The remainder of each homogenate was extracted as described in detail elsewhere (Ebner et al. 2006; Sujkovic et al. 2009), to give free steroid and steroid sulphate fractions. First, homogenates were extracted into 20 vols ethanol containing acetic acid 3% (v/v). After centrifugation (28 000 g, 30 min, 25°C) to remove denatured protein, the extracts were delipidated by partitioning three times against 10 vols isooctane. Extracts were dried down under vacuum and redissolved in ethanol, which was then diluted to 20% v/v in 5 mM potassium phosphate buffer, pH 7.0 at a total volume of 20 ml. Separation of free and sulphated steroids was achieved by passage through a 60 mg Oasis MAX® cartridge. After washing the cartridge with 5 mL ethanol at 20% v/v in ammonium acetate (20 mM, pH 7), free steroids were eluted in 4 mL ethyl acetate. Passage of 20 mL ethanol at 60% v/v in formate/pyridine buffer (20 mM, pH 3) eluted any steroid glucuronides present. Finally, steroid sulphates were eluted in 30 mL 60% v/v ethanol containing ammonium carbonate 1% (w/v). To measure the radioactivity of each fraction, portions were dried down and then redissolved in Ecoscint H for counting. The remainder was dried down, redissolved in ethanol 96% v/v and stored at −20°C for subsequent analysis by TLC.

[4] = TLC analysis of 3H-steroid metabolites in brain fractions after perfusion; assay type: in vivo, rat; details: after 0.5 min perfusion with the 3H-steroid sulphate
From the text: For the analysis of ^3H‐steroid metabolites, samples were spotted onto TLC plates for chromatography in the following solvent systems: A (for sulphated steroids), ethyl acetate:ethanol:ammonia (5 : 5 : 1, v/v); B (for free steroids) cyclohexane:n‐butyl acetate (1 : 2, v/v); C (for acetylated steroids), isooctane:ethyl acetate (13 : 7, v/v). Non‐radioactive steroid standards could be visualised by exposure to iodine vapour whereas the ^3H‐steroids were detected by placing the TLC plates in contact with imaging film for subsequent visualisation in a phosphorimager. Additional analysis of the steroid sulphates employed elution from the TLC plate in ammoniated ethanol then drying down and redissolving in sodium acetate buffer, 0.5 M, pH 5.0 for desulphation by incubation with Helix sulphatase (1 mg/mL, 40°C overnight followed by 55°C for 3 h). The resulting free steroids were adsorbed onto a 60 mg Oasis HLB® cartridge and eluted in 5 mL ethyl acetate. This eluate was dried down and analysed by TLC as above for free steroids. Further identification of ^3H‐steroid metabolites was obtained by acetylating them alongside both ^3H‐labelled and non‐radioactive standards. The TLC eluates or standards were dried down and redissolved in 200 μL pyridine. An equal volume of acetic anhydride was then added followed by incubation at 37°C for 2 h. […]

[5] = rats, ref Kishimoto and Hoshi (1972), cited from earlier work
[6] = after 0.5 min bilateral perfusion, mean ± SEM, n = 5

Compound: C[C@]12CC[C@H](OS(=O)(=O)O)CC1=CCC1C2CC[C@]2(C)C(=O)CCC12 (some centres unmarked) [DHEAS, dehydroepiandrosterone sulphate]
- 3H-label appearing in the jugular vein as unchanged steroid sulphate [1]: 90%
- K in, unidirectional transfer coefficient ([2]; Cerebellum, mean ± SEM): 38.6 ± 7.0 µL/g/min
- K in, unidirectional transfer coefficient ([2]; Hippocampus, mean ± SEM): 45.4 ± 3.4 µL/g/min
- K in, unidirectional transfer coefficient ([2]; Hypothalamus, mean ± SEM): 57.7 ± 2.7 µL/g/min
- K in, unidirectional transfer coefficient ([2]; Medulla, mean ± SEM): 39.4 ± 8.9 µL/g/min
- position of log PS in plot against cLog Poct relative to the line for passively permeating compounds ([2]; PS from K in as slope of Vd against time 0.25 to 0.5 min, implies net efflux): below the 95% confidence limits of the line of best fit for passively permeating compounds
- K in, unidirectional transfer coefficient ([2]; Parietal cortex, mean ± SEM): 38.4 ± 4.5 µL/g/min
- K in, unidirectional transfer coefficient ([2]; Remainder of brain tissue, mean ± SEM): 44.8 ± 4.1 µL/g/min
- K in, unidirectional transfer coefficient ([2]; Striatum, mean ± SEM): 47.2 ± 3.9 µL/g/min
- K in, unidirectional transfer coefficient ([2]; Sup. colliculus, mean ± SEM): 63.5 ± 6.7 µL/g/min
- V d, corrected for sucrose space (vascular volume), control ([2]; brain uptake after 0.5 min perfusion without inhibitors (control of Fig. 3), mean ± SEM, n = 3): 32.47 ± 2.03 µL/g
- radioactivity in capillary fraction [3, 6]: 3451 ± 511 dpm/mg protein
- radioactivity in parenchyma fraction [3, 6]: 3279 ± 388 dpm/mg protein
- recovery of total homogenate radioactivity into capillary fraction [3, 6]: 2.2 ± 0.3%
- recovery of total homogenate radioactivity into parenchyma fraction [3, 6]: 25.7 ± 2.3%
- percentage of 3H-label as free steroid, parenchyma versus capillary ([3]; after 0.5 min perfusion, Fig. 4, p < 0.02): significantly higher percentage of the free steroid in the parenchyma than in the brain capillaries
- desulphation on uptake into brain ([3]; within 0.5 min of uptake, brain perfusion in situ): > 50%
- metabolism in brain fractions [4]: underwent 17‐hydroxylation to form androstenediol in both the steroid sulphate and the free steroid fractions, with some additional formation of androstenedione in the latter
- radiolabel accumulating as free steroid in the brain ([5]; intracardiac injection): ~50%
- radiolabel accumulating as free steroid in the brain ([5]; intracerebral injection): 5%
